# Laboratory results as given in patent US20100144636A1, “PEPTIDES DERIVED FROM RAS-P21 AND USES THEREFOR” (THE RESEARCH FOUNDATION OF STATE UNIVERSITY OF NEW YORK, priority 2008, published 2010).
# Where no end group is shown, it is not given here.
# Assays:
# [1] = test system: BMRPA1 normal rat pancreatic acinar cells; test: Growth and viability of untransformed BMRPA1 cells incubated with peptide; format: cell-based
# Method: (§1) MIAPaCa-2 cells were grown in Dulbecco's modified Eagle's medium (GIBCO) supplemented with heat inactivated 10% fetal calf serum, 20 mM glutamine, penicillin (100 units/ml), streptomycin (100/ug/ml) and plated on a six-well plate with density no more then 20,000 cells/well in 3 ml culture medium. HT1080 cells were cultured in RPMI 1640 medium supplemented with 10% heat-inactivated fetal calf serum, 100 units/ml of penicillin and 100 ug/ml streptomycin and plated on six-well plates with a density of no more then 6,000 cells/well in 3 ml culture medium. BMRPA1 normal rat pancreatic acinar cells were grown as described previously.
# (§2) All cells (approximately 2×10^4) were incubated in their respective media (see above) for 24 h after which the media were replaced with the same media containing one of the peptides at a concentration of 100 μg/ml. Over the subsequent time course of each experiment, the medium was changed every 48 h, but always contained peptide at the same concentration. Cells were observed daily for 1-3 weeks for changes in morphology and growth characteristics. After selected time periods, cells were stained with trypan blue or assayed using the MTT assay as described previously to assess cell counts. These experiments were performed at least three times for each cell line.
# [2] = test system: oncogenic (Val 12-containing) ras-p21-induced oocyte maturation; test: Oncogenic ras-p21-induced oocyte maturation (GVBD); format: cell-based, Xenopus laevis; conditions: injected/co-injected with oncogenic ras-p21 into oocytes
# Source text: (§3) The Applicants have synthesized both of the inventive peptides, referred to as PNC-7 and PNC-2, and assayed them for their abilities to block oncogenic ras-p21 induction of maturation of Xenopus laevis oocytes. Injection of oncogenic, but not wild-type ras-p21, into these oocytes induce oocyte maturation, i.e., completion of the second meiotic division, as measured by germinal vesicle membrane breakdown (GVBD). Insulin also induces oocyte maturation in a manner that requires activation of endogenous wild-type ras-p21.
# [3] = test system: insulin-induced oocyte maturation; test: Insulin-induced oocyte maturation (activated wild-type ras-p21); format: cell-based, Xenopus laevis; conditions: oocytes induced to mature with insulin
# Source text: as §3
# [4] = test system: oncogenic ras-p21-JNK interaction; test: Oncogenic ras-p21-JNK interaction; format: binding; conditions: dose-response curve coincides with that for inhibition of oocyte maturation
# [5] = biological target: oncogenic ras-p21 with raf (Homo sapiens, UniProt P04049); test: Interaction of oncogenic ras-p21 with raf; format: binding
# [6] = test system: HT-1080 fibrosarcoma cells; test: Growth (cell counts) of HT-1080 cells incubated with peptide; format: cell-based, human; conditions: peptide 100 μg/ml, medium changed every 48 h; three-week observation period (FIG. 1)
# Method: as §1, §2
# [7] = test system: caspase (CPP32) in MIA-PaCa-2 cells; test: Clontech caspase (CPP32) activity assay for apoptosis; format: cell-based, human; conditions: relative to control background; TNF-alpha 20 ng/ml for 45 min as positive control (FIG. 4A)
# Method: To detect if peptide-induced cell death occurred by apoptosis or necrosis, the Clontech caspase (CPP32) activity assay for elevated caspase was performed as described previously. In addition, to detect if significant cell necrosis occurred, the CytoTox96 assay for LDH released into the cell culture medium was used as also described previously. As a positive control for LDH release, the CytoTox96 assay was performed on the media of MIA-PaCa-2 cells that were incubated with 100 ug/ml PNC-28 peptide for 24 h.
substance,measurement,setting,value
YREQIKRVKDSDDVPKKWKMRRNQFVKVQRG [PNC-2-MRP],cell growth or viability of untransformed BMRPA1 cells,[1],no effect either on cell growth or viability
"MPFSTGKRIMLGEKKWKMRRNQFVKVQRG [PNC-29, reference compound]",cell growth or viability of untransformed BMRPA1 cells,[1],no effect either on cell growth or viability
YREQIKRVKDSDDVP (PNC-2 -ras-p21 residue 96-110),inhibition of oncogenic ras-p21-induced oocyte maturation,[2],block
same,inhibition of insulin-induced oocyte maturation,[3],considerably less inhibitory activity
same,blocking of the oncogenic ras-p21-JNK interaction,[4],blocks the oncogenic ras-p21-JNK interaction
TIEDSYRQVVIDKKWKMRRNQFVKVQRG [PNC-7-MRP],cell growth or viability of untransformed BMRPA1 cells,[1],no effect either on cell growth or viability
TIEDSYRQVVID (PNC-7- ras-p21 residue 35-47),inhibition of oncogenic ras-p21-induced oocyte maturation,[2],block
same,inhibition of insulin-induced oocyte maturation,[3],considerably less inhibitory activity
same,blocking of the interaction of oncogenic ras-p21 with raf,[5],blocks the interaction of oncogenic ras-p21 with raf
NAVFRLLHEHKGKKAKKWKMRRNQFVKVQRG (CD45-MRP- Control peptide from the CD-45 antigen linked to penetratin) [CD-45-MRP],tumor cell growth / cell count of HT-1080 cells,[6],no effect on tumor cell growth
TNF-alpha,caspase expression in MIA-PaCa-2 cells,[7],markedly elevated
